Laboratory results reported in ChEMBL document CHEMBL3826886, “LpxC Inhibitors: Design, Synthesis, and Biological Evaluation of Oxazolidinones as Gram-negative Antibacterial Agents” (ACS Med Chem Lett, 2016).
≈ marks a conversion by molar mass, not a printed value. Calls of active or inactive are those of the source. The calls are words filed in the database; no cut-off is given here.

What was measured:
[1] = molecular target: T1, UDP-3-O-acyl-N-acetylglucosamine deacetylase (Escherichia coli K-12, UniProt P0A725); test: Inhibition of Escherichia coli LpxC using UDP-3-O-(R-3-hydroxymyristoyl)GlcNAc as substrate measured after 60 mins by fluorescence analysis
T1 sequence (P0A725 whole entry): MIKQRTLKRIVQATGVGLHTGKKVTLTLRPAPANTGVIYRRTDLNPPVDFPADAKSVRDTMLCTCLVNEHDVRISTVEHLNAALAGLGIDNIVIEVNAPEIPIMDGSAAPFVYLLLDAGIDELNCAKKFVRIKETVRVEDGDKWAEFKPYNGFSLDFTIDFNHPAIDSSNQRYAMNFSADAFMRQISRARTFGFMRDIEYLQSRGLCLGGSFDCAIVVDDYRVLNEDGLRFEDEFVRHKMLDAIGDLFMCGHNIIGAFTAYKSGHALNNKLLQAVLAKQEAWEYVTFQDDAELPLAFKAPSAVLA

[2] = test system: Escherichia coli; test: Antibacterial activity against wild-type Escherichia coli TG1 after 16 to 20 hrs by agar dilution method; format: functional
[3] = test system: Escherichia coli; test: Antibacterial activity against Escherichia coli KAM3 harboring acrB deletion mutant after 16 to 20 hrs by agar dilution method; format: functional
[4] = test system: Klebsiella pneumoniae; test: Antibacterial activity against wild-type Klebsiella pneumoniae ATCC 13883 by agar dilution method; format: functional
[5] = test system: Pseudomonas aeruginosa; test: Antibacterial activity against Pseudomonas aeruginosa K799/61 measured after 16 to 20 hrs by agar dilution method; format: functional, organism-based
[6] = test system: Acinetobacter baumannii; test: Antibacterial activity against Acinetobacter baumannii ATCC 19606 measured after 20 to 24 hrs by agar dilution method; format: functional
[7] = Ratio of MIC for wild-type Escherichia coli TG1 to MIC for Escherichia coli KAM3 acrB deletion mutant; format: functional
[8] = test system: Pseudomonas aeruginosa; test: Antibacterial activity against wild type Pseudomonas aeruginosa K799 measured after 16 to 20 hrs by agar dilution method; format: functional, organism-based
[9] = test system: Pseudomonas aeruginosa; test: Antibacterial activity against Pseudomonas aeruginosa PAO4009 measured after 16 to 20 hrs by agar dilution method; format: functional, organism-based

In the case of `O=C(NO)[C@@H]1CN(c2ccc(C#Cc3ccc(CN4CCOCC4)cc3)cc2)C(=O)CO1`, the IC50 [1] is reported as 0.51 µM, the MIC [2] is reported as 2 mg/L (≈ 4.59 µM) and the MIC [3] is reported as 0.25 mg/L (≈ 0.574 µM). For the same molecule, the MIC [4] was 16 mg/L (≈ 36.7 µM).

For `O=C(NO)[C@@H]1CN(c2ccc(C#Cc3ccc(CN4CCOCC4)cc3)cc2)C(=O)O1`, the Activity [5] was “inactive”, the IC50 [1] was 0.13 µM and the MIC [2] was 0.5 mg/L (≈ 1.19 µM). For the same molecule, the MIC [3] was 0.06 mg/L (≈ 0.142 µM), the MIC [4] was 2 mg/L (≈ 4.75 µM) and the Activity [6] was “inactive”. The Ratio [7] was 2, the Activity [8] was “inactive” and the Activity [9] was “inactive”.

`C[C@@H](O)[C@H](NC(=O)c1ccc(C#Cc2ccc(CN3CCOCC3)cc2)cc1)C(=O)NO` showed an MIC [2] of 0.13 mg/L (≈ 0.297 µM), an MIC [3] of 0.01 mg/L (≈ 0.0229 µM) and an MIC [4] of 0.25 mg/L (≈ 0.571 µM).

With `O=C(NO)[C@@H]1CN(c2ccc(C#CC#CC3CC3)cc2)C(=O)O1` the Activity [5] was “inactive”, the IC50 [1] was 0.018 µM and the MIC [2] was 0.063 mg/L (≈ 0.203 µM). For the same molecule, the MIC [3] was 0.016 mg/L (≈ 0.0516 µM), the MIC [4] was 0.25 mg/L (≈ 0.806 µM) and the Activity [6] was “inactive”. For the same molecule, the Ratio [7] was 2, the Activity [8] was “inactive” and the Activity [9] was “inactive”.

Work on `Nc1cc(N2C[C@@H](C(=O)NO)OC2=O)ccc1C#CC#CC1CC1` yielded an IC50 [1] of 0.27 µM, an MIC [2] of 0.25 mg/L (≈ 0.768 µM) and an MIC [3] of 0.063 mg/L (≈ 0.194 µM). It also gave an MIC [4] of 2 mg/L (≈ 6.15 µM) and a Ratio [7] of 2.

For `O=C(NO)[C@@H]1CN(c2ccc(C#CC#CC3CC3)cc2F)C(=O)O1`, the Activity [5] was “inactive”, the IC50 [1] was 0.2 µM and the MIC [2] was 0.5 mg/L (≈ 1.52 µM). For the same molecule, the MIC [3] was 0.25 mg/L (≈ 0.762 µM), the MIC [4] was 4 mg/L (≈ 12.2 µM) and the Activity [6] was “inactive”. For the same molecule, the Ratio [7] was 2, the Activity [8] was “inactive” and the Activity [9] was “inactive”.

`O=C(NO)[C@H]1CN(c2ccc(C#Cc3ccc(CN4CCOCC4)cc3)cc2)C(=O)O1` gave an IC50 [1] of 0.26 µM, an MIC [2] of 1 mg/L (≈ 2.37 µM) and an MIC [3] of 0.13 mg/L (≈ 0.308 µM). For the same molecule, the MIC [4] was 8 mg/L (≈ 19 µM).

`O=C(NO)[C@@H]1CN(c2ccc(C#Cc3ccc(CN4CCOCC4)cc3)cc2)C(=O)N1` gave an IC50 [1] of 0.7 µM, an MIC [2] of 8 mg/L (≈ 19 µM) and an MIC [3] of 0.5 mg/L (≈ 1.19 µM). The MIC [4] was greater than 32 mg/L.

`O=C(NO)[C@@H]1CN(c2ccc(C#CC#CCCO)cc2)C(=O)O1` showed an IC50 [1] of 0.14 µM, an MIC [2] of 0.5 mg/L (≈ 1.59 µM) and an MIC [3] of 0.125 mg/L (≈ 0.398 µM). For the same molecule, the MIC [4] was 8 mg/L (≈ 25.5 µM) and the Ratio [7] was 2.

`O=C(NO)[C@@H]1CN(c2ccc(C#CC#C[C@H]3C[C@@H]3CO)cc2)C(=O)O1` (mixture of isomers) showed an IC50 [1] of 0.02 µM, an MIC [2] of 0.125 mg/L and an MIC [3] of 0.016 mg/L. The MIC [4] was 1 mg/L and the Ratio [7] was 2.

With `O=C(NO)[C@@H]1CN(c2ccc(C#CC#CC3CC3)c(F)c2)C(=O)O1` the Activity [5] was “inactive”, the IC50 [1] was 0.006 µM and the MIC [2] was 0.016 mg/L (≈ 0.0487 µM). The MIC [3] was 0.004 mg/L (≈ 0.0122 µM), the MIC [4] was 0.063 mg/L (≈ 0.192 µM) and the Activity [6] was “inactive”. For the same molecule, the Ratio [7] was 2, the Activity [8] was “inactive” and the Activity [9] was “inactive”.

`O=C(NO)c1ccc(=O)n(-c2ccc(C#Cc3ccc(CN4CCOCC4)cc3)cc2)c1` gave an IC50 [1] of 1 µM, an MIC [2] of 8 mg/L (≈ 18.6 µM) and an MIC [3] of 1 mg/L (≈ 2.33 µM). It also gave an MIC [4] of 64 mg/L (≈ 149 µM).

With `O=C(NO)[C@@H]1CN(c2ccc(C#CC#CC3CC3)c([N+](=O)[O-])c2)C(=O)O1` the IC50 [1] was 0.027 µM, the MIC [2] was 0.125 mg/L (≈ 0.352 µM) and the MIC [3] was 0.31 mg/L (≈ 0.872 µM). It also gave an MIC [4] of 1 mg/L (≈ 2.81 µM) and a Ratio [7] of 2.

With `O=C(NO)[C@@H]1CN(c2ccc(C#CC#CCCCO)cc2)C(=O)O1` the IC50 [1] was 0.058 µM, the MIC [2] was 0.125 mg/L (≈ 0.381 µM) and the MIC [3] was 0.031 mg/L (≈ 0.0944 µM). For the same molecule, the MIC [4] was 2 mg/L (≈ 6.09 µM) and the Ratio [7] was 2.

`COc1cc(C#CC#CC2CC2)ccc1N1C[C@@H](C(=O)NO)OC1=O` gave an IC50 [1] of 2 µM, an MIC [2] of 4 mg/L (≈ 11.8 µM) and an MIC [3] of 0.5 mg/L (≈ 1.47 µM). It also gave an MIC [4] of 32 mg/L (≈ 94 µM) and a Ratio [7] of 2.
